# Experimental data published in patent US20250277012A1 (Protagonist Therapeutics, Inc., priority 2021, published 2025).
# Read-outs that look alike come from different tables or passages of the source. Starred links: 1 amine or outer side, 2 acyl side, 3 side chain; linkers in the order of their positions; H or OH if unused. Positions of bridges follow the written chain, without caps; N, C: chain ends. Non-standard residues stand in square brackets, D forms with d. Residues, ends and D or L forms follow the SMILES beside them. Groups on a side chain read outwards from the residue. ξ: configuration not given here. *: point of attachment. X1 = C[N+](C)(CCNC(=O)CCCCCCCCCCCCCCCCC(=O)O)CC(=O)*; X5 = CCCCCCCCCCCCCCCC(=O)NCC[N+](C)(C)CC(=O)*; C18 diacid = O=C(O)CCCCCCCCCCCCCCCCC(=O)*; Dip = N[C@H](C(=O)O)C(c1ccccc1)c1ccccc1; γGlu = O=C(O)[C@H](CCC(=O)[*:2])N[*:1]; Pro(3S-OH) = O=C(O)[C@H]1NCC[C@@H]1O; Pro(3R-OH) = O=C(O)[C@H]1NCC[C@H]1O; Ethylenediamine = C(CN[*:2])N[*:1]; Palmitoyl = CCCCCCCCCCCCCCCC(=O)*; NMeF = CN[C@@H](Cc1ccccc1)C(=O)O; NMeT = CN[C@H](C(=O)O)[C@@H](C)O; NMeE = CN[C@@H](CCC(=O)O)C(=O)O; β3hF = N[C@H](CC(=O)O)Cc1ccccc1; NMeK = CN[C@@H](CCCCN)C(=O)O; dNMeK = CN[C@H](CCCCN)C(=O)O; Isovaleryl = CC(C)CC(=O)*; NMeC = CN[C@@H](CS)C(=O)O; Dap = NC[C@H](N)C(=O)O; AEEA = NCCOCCOCC(=O)O; Ahx = NCCCCCC(=O)O; ξC = NC(CS)C(=O)O
# How the values were obtained:
# ferroportin [1] = target: T1, ferroportin (Homo sapiens, UniProt Q9NP59); test: T47D cell-based ferroportin internalization assay in presence of mouse serum albumin (MSA); parameters: a human breast carcinoma adherent cell line which endogenously expresses ferroportin; host or cells: T47D; conditions: Table 6E
# T1 sequence (Q9NP59 1-571): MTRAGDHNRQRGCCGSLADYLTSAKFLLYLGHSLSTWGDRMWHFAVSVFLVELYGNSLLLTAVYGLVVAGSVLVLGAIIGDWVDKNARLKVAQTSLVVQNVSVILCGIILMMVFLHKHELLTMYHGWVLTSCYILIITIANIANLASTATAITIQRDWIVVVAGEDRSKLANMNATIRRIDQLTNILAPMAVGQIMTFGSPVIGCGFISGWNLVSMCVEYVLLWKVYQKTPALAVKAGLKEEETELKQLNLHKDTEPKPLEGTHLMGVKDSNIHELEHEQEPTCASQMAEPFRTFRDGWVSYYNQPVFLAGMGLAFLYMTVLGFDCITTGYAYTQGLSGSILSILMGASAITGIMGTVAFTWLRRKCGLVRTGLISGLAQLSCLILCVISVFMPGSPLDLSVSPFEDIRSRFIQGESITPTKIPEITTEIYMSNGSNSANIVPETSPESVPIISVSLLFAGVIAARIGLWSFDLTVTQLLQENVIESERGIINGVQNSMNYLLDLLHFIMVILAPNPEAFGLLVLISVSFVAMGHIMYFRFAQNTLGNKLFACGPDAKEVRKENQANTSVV
# Method: The potency of the peptides in causing ferroportin internalization was evaluated in a T47D cell-based assay. […] In this internalization assay, the potency of the test peptides was evaluated in presence of serum albumin which is the main protein component in the blood. T47D cells were maintained in RPMI media (containing required amount of fetal bovine serum) and regularly sub-cultured. In preparation for the assay, the cells were seeded in 96-well plates at a density of 80-100 k cells per well in 100 ul volume and allowed to rest overnight. […] Sigma, A3139). The test peptide dilution series were allowed to incubate at room temperature for 30 min. Then the media was aspirated from the 96-well cell plate and test peptide dilution series were added. […] The AF647-conjugated detection peptide was previously verified to bind to ferroportin and cause its internalization. The cells were washed again after a 2 hr incubation in preparation for flow cytometry analysis. The Median Fluorescence Intensity (MFI) of the AF647-positive population was measured (after removing dead cells and non-singlets from the analysis). The MFI values were used to generate a dose-response curve and obtain IC50 potencies for the test peptides.
# ferroportin [2] = target: T1, ferroportin; test: FPN activity assay: ferroportin-GFP internalization/degradation in HEK293 cells; assay type: cell-based; parameters: expressed in transfected cells; conditions: read-out: FPN IC50
# Method: Following internalization, the ferroporin protein is degraded.
# A retro inverse peptide is a peptide with a reversed sequence in all D amino acids. An example is that Hy-Glu-Thr-His-NH2 becomes Hy-DHis-DThr-DGlu-NH2. The EC50 of these reference compounds for ferroportin internalization/degradation was determined according to the FPN activity assay described above. These peptides served as control standards.
# [3] = T47D internalization assay with MSA
# [4] = ferroportin-GFP internalization/degradation, HEK293 cells, Table 6E
SMILES,IC50 (ferroportin [1]; [3]) [nM],other results
COC(=O)CC[C@H](NC(=O)CC(C)C)C(=O)N[C@H](C(=O)N[C@@H](Cc1c[nH]cn1)C(=O)N[C@H](C(=O)N1CCC[C@H]1C(=O)N[C@H]1CSSC[C@@H](C(=O)N(C)[C@@H](CCCCNC(=O)COCCOCCNC(=O)COCCOCCNC(=O)C[N+](C)(C)CCNC(=O)CCCCCCCCCCCCCCCCC(=O)O)C(=O)N[C@H](C(=O)N[C@H](CCCCN)C(N)=O)C(c2ccccc2)c2ccccc2)NC1=O)C(c1ccccc1)c1ccccc1)[C@@H](C)O [compound 230] (Isovaleryl-E(OMe)TH[Dip]PCC[NMeK]([AEEA-AEEA-X1])[Dip][dK]-NH2; disulfide 6-7),,IC50 (ferroportin [1]; T47D internalization assay in presence of mouse serum albumin (MSA)): 10 to 100 nM
CC(C)CC(=O)N[C@@H](CCC(=O)O)C(=O)N1CC[C@H](O)[C@H]1C(=O)N[C@@H](Cc1c[nH]cn1)C(=O)N[C@H](C(=O)N1CCC[C@H]1C(=O)N[C@H]1CSSC[C@@H](C(=O)N(C)[C@@H](CCCCNC(=O)CCCCCNC(=O)C[N+](C)(C)CCNC(=O)CCCCCCCCCCCCCCCCC(=O)O)C(=O)N[C@H](C(=O)N[C@H](CCCCN)C(N)=O)C(c2ccccc2)c2ccccc2)NC1=O)C(c1ccccc1)c1ccccc1 [compound 192] (Isovaleryl-E[Pro(3S-OH)]H[Dip]PCC[NMeK]([Ahx-X1])[Dip][dK]-NH2; disulfide 6-7),10 to 100,
CC(C)CC(=O)N[C@@H](CCC(=O)O)C(=O)N1CC[C@@H](O)[C@H]1C(=O)N[C@@H](Cc1c[nH]cn1)C(=O)N[C@H](C(=O)N1CCC[C@H]1C(=O)N[C@H]1CSSC[C@@H](C(=O)N(C)[C@@H](CCCCNC(=O)CCCCCNC(=O)C[N+](C)(C)CCNC(=O)CCCCCCCCCCCCCCCCC(=O)O)C(=O)N[C@H](C(=O)N[C@H](CCCCN)C(N)=O)C(c2ccccc2)c2ccccc2)NC1=O)C(c1ccccc1)c1ccccc1 [compound 191] (Isovaleryl-E[Pro(3R-OH)]H[Dip]PCC[NMeK]([Ahx-X1])[Dip][dK]-NH2; disulfide 6-7),10 to 100,
CC(C)CC(=O)N[C@@H](CCC(=O)O)C(=O)N1CC[C@@H](O)[C@H]1C(=O)N[C@@H](Cc1c[nH]cn1)C(=O)N[C@H](C(=O)N1CCC[C@H]1C(=O)N[C@H]1CSSC[C@@H](C(=O)N(C)[C@@H](CCCCNC(=O)CCCCCNC(=O)C[N+](C)(C)CCNC(=O)CCCCCCCCCCCCCCCCC(=O)O)C(=O)N[C@H](C(=O)N(C)[C@@H](CCCCN)C(N)=O)C(c2ccccc2)c2ccccc2)NC1=O)C(c1ccccc1)c1ccccc1 [compound 156] (Isovaleryl-E[Pro(3R-OH)]H[Dip]PCC[NMeK]([Ahx-X1])[Dip][NMeK]-NH2; disulfide 6-7),10 to 100,
CC(C)CC(=O)N[C@@H](CCC(=O)O)C(=O)N[C@H](C(=O)N[C@@H](Cc1c[nH]cn1)C(=O)N[C@H](C(=O)N1CCC[C@H]1C(=O)N[C@H]1CSSC[C@@H](C(=O)N(C)[C@@H](CCCCNC(=O)COCCOCCNC(=O)COCCOCCNC(=O)[C@H](CN)NC(=O)CCCCCCCCCCCCCCCCC(=O)O)C(=O)N[C@H](CC(=O)N[C@H](CCCCN)C(N)=O)Cc2ccccc2)N(C)C1=O)C(c1ccccc1)c1ccccc1)[C@@H](C)O [compound 278] (Isovaleryl-ETH[Dip]PC[NMeC][NMeK]([AEEA-AEEA-Dap-C18 diacid])[β3hF][dK]-NH2; disulfide 6-7),,DC50 (ferroportin [2]; [4]): 10 to 100 nM
CC(=O)NCCCC[C@H](C(N)=O)N(C)C(=O)C[C@H](Cc1ccccc1)NC(=O)[C@H](CCCCNC(=O)COCCOCCNC(=O)COCCOCCNC(=O)[C@H](CN)NC(=O)CCCCCCCCCCCCCCCCC(=O)O)N(C)C(=O)[C@@H]1CSSC[C@H](NC(=O)[C@@H]2CCCN2C(=O)[C@@H](NC(=O)[C@H](Cc2c[nH]cn2)NC(=O)[C@@H](NC(=O)[C@H](CCC(=O)O)NC(=O)CC(C)C)[C@@H](C)O)C(c2ccccc2)c2ccccc2)C(=O)N1 [compound 267] (Isovaleryl-ETH[Dip]PCC[NMeK]([AEEA-AEEA-Dap-C18 diacid])[β3hF][dNMeK](Ac)-NH2; disulfide 6-7),,DC50 (ferroportin [2]; [4]): 100 to 500 nM
CC[C@H](C)[C@H](NC(=O)[C@@H]1CSSC[C@H](NC(=O)[C@H](Cc2c[nH]cn2)NC(=O)[C@@H](NC(=O)[C@H](CCC(=O)O)NC(=O)CC(C)C)[C@@H](C)O)C(=O)N2CCC[C@H]2C(=O)N1)C(=O)N[C@H](CCCCN)C(=O)N[C@H](CC(=O)N[C@@H](CCCCNC(=O)COCCOCCNC(=O)COCCOCCNC(=O)CC[C@H](NC(=O)CCCCCCCCCCCCCCCCC(=O)O)C(=O)O)C(=O)N[C@H](CCCCN)C(N)=O)Cc1ccccc1 [Compd 33] (Isovaleryl-ETHCPCI[dK][β3hF]K([AEEA-AEEA-γGlu-C18 diacid])[dK]-NH2; disulfide 4-6),,"DC50 (ferroportin [2]; ferroportin-GFP HEK293 cells, at least 18 hours): > 500 nM"
COC(=O)CC[C@H](NC(=O)CC(C)C)C(=O)N(C)[C@H](C(=O)N[C@@H](Cc1c[nH]cn1)C(=O)N[C@H](C(=O)N1CCC[C@H]1C(=O)N[C@H]1CSSC[C@@H](C(=O)N(C)[C@@H](Cc2ccccc2)C(N)=O)NC1=O)C(c1ccccc1)c1ccccc1)[C@@H](C)O [compound 184] (Isovaleryl-E(OMe)[NMeT]H[Dip]PCC[NMeF]-NH2; disulfide 6-7),,"DC50 (ferroportin [2]; Table 6E, ferroportin-GFP internalization/degradation, at least 18 hours incubation): > 500 nM"

# More lines, main results first:
IC50 (ferroportin [1]; [3]) [nM],SMILES,other results
1 to 10,CCCCCCCCCCCCCCCC(=O)NCCCCCC(=O)NCCCC[C@@H](C(=O)N[C@H](C(=O)NCCN)C(c1ccccc1)c1ccccc1)N(C)C(=O)C1CSSC[C@H](NC(=O)[C@@H]2CCCN2C(=O)[C@@H](NC(=O)[C@H](Cc2c[nH]cn2)NC(=O)[C@@H](NC(=O)[C@H](CCC(=O)O)NC(=O)CC(C)C)[C@@H](C)O)C(c2ccccc2)c2ccccc2)C(=O)N1 (stereo partly shown) [compound 164] (Isovaleryl-ETH[Dip]PC[ξC][NMeK]([Ahx-Palmitoyl])[Dip]-Ethylenediamine; disulfide 6-7),
1 to 10,CCCCCCCCCCCCCCCC(=O)NCC[N+](C)(C)CC(=O)NCCCC[C@@H](C(=O)N[C@H](C(N)=O)C(c1ccccc1)c1ccccc1)N(C)C(=O)[C@@H]1CSSC[C@H](NC(=O)[C@@H]2CCCN2C(=O)[C@@H](NC(=O)[C@H](Cc2cnc[nH]2)NC(=O)[C@H]([C@@H](C)O)N(C)C(=O)[C@H](CCC(=O)O)NC(=O)CC(C)C)C(c2ccccc2)c2ccccc2)C(=O)N1 [compound 169] (Isovaleryl-E[NMeT]H[Dip]PCC[NMeK](X5)[Dip]-NH2; disulfide 6-7),
1 to 10,CCCCCCCCCCCCCCCC(=O)NCC[N+](C)(C)CC(=O)NCCCC[C@@H](C(=O)N[C@H](C(=O)N[C@H](CCCCN)C(N)=O)C(c1ccccc1)c1ccccc1)N(C)C(=O)[C@@H]1CSSC[C@H](NC(=O)[C@@H]2CCCN2C(=O)[C@@H](NC(=O)[C@H](Cc2cnc[nH]2)NC(=O)[C@@H](NC(=O)[C@H](CCC(=O)OC)NC(=O)CC(C)C)[C@@H](C)O)C(c2ccccc2)c2ccccc2)C(=O)N1 [compound 175] (Isovaleryl-E(OMe)TH[Dip]PCC[NMeK](X5)[Dip][dK]-NH2; disulfide 6-7),
1 to 10,CCCCCCCCCCCCCCCC(=O)NCCCCCC(=O)NCCCC[C@@H](C(=O)N[C@H](C(=O)N[C@H](CCCCN)C(N)=O)C(c1ccccc1)c1ccccc1)N(C)C(=O)[C@@H]1CSSC[C@H](NC(=O)[C@@H]2CCCN2C(=O)[C@@H](NC(=O)[C@H](Cc2cnc[nH]2)NC(=O)[C@@H](NC(=O)[C@H](CCC(=O)O)N(C)C(=O)CC(C)C)[C@@H](C)O)C(c2ccccc2)c2ccccc2)C(=O)N1 [compound 166] (Isovaleryl-[NMeE]TH[Dip]PCC[NMeK]([Ahx-Palmitoyl])[Dip][dK]-NH2; disulfide 6-7),
1 to 10,CCCCCCCCCCCCCCCC(=O)NCC[N+](C)(C)CC(=O)NCCCCCC(=O)NCCCC[C@@H](C(=O)N[C@H](C(=O)N[C@H](CCCCN)C(N)=O)C(c1ccccc1)c1ccccc1)N(C)C(=O)[C@@H]1CSSC[C@H](NC(=O)[C@@H]2CCCN2C(=O)[C@@H](NC(=O)[C@H](Cc2cnc[nH]2)NC(=O)[C@H]([C@@H](C)O)N(C)C(=O)[C@H](CCC(=O)O)NC(=O)CC(C)C)C(c2ccccc2)c2ccccc2)C(=O)N1 [compound 170] (Isovaleryl-E[NMeT]H[Dip]PCC[NMeK]([Ahx-X5])[Dip][dK]-NH2; disulfide 6-7),
